Measurements: patent publication US9073895B2 (Boehringer Ingelheim International GmbH, priority 2010, dated 2015)

Legend:
[1] = target: T1, recombinant human FLAP protein (Homo sapiens, UniProt P20292); experiment: FLAP binding assay (SPA, displacement of [125I]L-691,831); details: membranes of sf9 cells expressing human FLAP, [125I]L-691,831 probe; read-out: hFLAP binding IC50
T1 construct: made in house; host or cells: Sf9 insect cells (membrane fraction, 100,000 x g pellet)
T1 sequence (P20292 1-161): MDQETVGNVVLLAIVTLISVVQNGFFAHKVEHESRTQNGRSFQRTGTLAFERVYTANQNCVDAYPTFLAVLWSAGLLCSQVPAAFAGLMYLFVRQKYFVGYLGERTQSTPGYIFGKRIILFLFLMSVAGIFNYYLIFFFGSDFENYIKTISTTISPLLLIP
Method in brief: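 Membranes from sf9 cells expressing human FLAP (5 μg/well) were bound to WGA SPA beads (200 μg/well). Nonspecific binding was defined with 10 μM unlabelled L-691,831.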

[2] = test system: synthesis of LTB4 in human whole blood; experiment: Human whole blood LTB4 production inhibition assay; format: cell-based; details: heparinized human whole blood, calcimycin 20 μM, plasma LTB4; read-out: HuWB IC50
Method in brief: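 Heparinized human whole blood preincubated with compound 15 min at 37 °C, then stimulated with calcimycin (20 μM final) for 30 min at 37 °C. Plasma LTB4 measured after low-speed centrifugation by antibody-based homogeneous time-resolved fluorescence.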

Row | Structure (SMILES) | IC50 [1] [nM] | IC50 [2] [nM]
1 | COc1cc(NC(=O)C2(c3ccc(-c4cnc(N)nc4)cc3)CCC2)ccn1 [Example 187, 1-[4-(2-aminopyrimidin-5-yl)phenyl]-N-(2-methoxypyridin-4-yl)cyclobutanecarboxamide] | 5.1 | 517
2 | O=C(Nc1ccncn1)C1(c2ccc(-c3cnc4[nH]ccc4c3)cc2)CCC1 [Example 188, N-(pyrimidin-4-yl)-1-[4-(1H-pyrrolo[2,3-b]pyridin-5-yl)phenyl]cyclobutanecarboxamide] | 1.65 | 130
3 | Cc1cc(NC(=O)C2(c3ccc(-c4cnc5[nH]ccc5c4)cc3)CCC2)ccn1 [Example 189, N-(2-methylpyridin-4-yl)-1-[4-(1H-pyrrolo[2,3-b]pyridin-5-yl)phenyl]cyclobutanecarboxamide] | 1.45 | 190
4 | CNc1ncc(-c2ccc(C3(C(=O)Nc4cccnc4)CCC3)cc2)cn1 [Example 192, 1-{4-[2-(methylamino)pyrimidin-5-yl]phenyl}-N-(pyridin-3-yl)cyclobutanecarboxamide] | 32 | 861
5 | CNc1ncc(-c2ccc(C3(C(=O)Nc4ccc(-c5csc(C)n5)cn4)CCOCC3)cc2)cn1 [Example 193, 4-{4-[2-(methylamino)pyrimidin-5-yl]phenyl}-N-[5-(2-methyl-1,3-thiazol-4-yl)pyridin-2-yl]tetrahydro-2H-pyran-4-carboxamide] | 10.1 | 1650
6 | Nc1ncc(-c2ccc(C3(C(=O)Nc4ccc(Oc5ccccc5)cn4)CCC3)cc2)cn1 [Example 194, 1-[4-(2-aminopyrimidin-5-yl)phenyl]-N-(5-phenoxypyridin-2-yl)cyclobutanecarboxamide] | 19.2 | 577
7 | Cc1nc(-c2ccc(NC(=O)C3(c4ccc(-c5cnc6[nH]cnc6c5)cc4)CCOCC3)nc2)cs1 [Example 197, 4-[4-(3H-imidazo[4,5-b]pyridin-6-yl)phenyl]-N-[5-(2-methyl-1,3-thiazol-4-yl)pyridin-2-yl]tetrahydro-2H-pyran-4-carboxamide] | 27 | 2440
8 | O=C(Nc1ccc(Oc2ccccc2)cn1)C1(c2ccc(-c3cnc4[nH]ccc4c3)cc2)CCC1 [Example 198, N-(5-phenoxypyridin-2-yl)-1-[4-(1H-pyrrolo[2,3-b]pyridin-5-yl)phenyl]cyclobutane-carboxamide] | 3.75 | 180
9 | COc1cc(NC(=O)C2(c3ccc(-c4cnc(N)nc4)cc3)CCC2)ncn1 [Example 199, 1-[4-(2-aminopyrimidin-5-yl)phenyl]-N-(6-methoxypyrimidin-4-yl)cyclobutanecarboxamide] | 5.7 | 1380
10 | Nc1ncc(-c2ccc(C3(C(=O)Nc4nccs4)CCC3)cc2)cn1 [Example 200, 1-[4-(2-aminopyrimidin-5-yl)phenyl]-N-(1,3-thiazol-2-yl)cyclobutanaecarboxamide] | 19 | 2010
11 | Nc1ncc(-c2ccc(C3(C(=O)Nc4ccc5ncsc5c4)CCC3)cc2)cn1 [Example 204, 1-[4-(2-aminopyrimidin-5-yl)phenyl]-N-(1,3-benzothiazol-6-yl)cyclobutanecarboxamide] | 2.8 | 415
12 | COc1ccc(-c2ccc(NC(=O)C3(c4ccc(-c5cnc(N)nc5)cc4)CCC3)nc2)cn1 [Example 208, 1-[4-(2-aminopyrimidin-5-yl)phenyl]-N-(6'-methoxy-3,3'-bipyridin-6-yl)cyclobutanecarboxamide] | 3.35 | 459
13 | Cc1ccc(NC(=O)C2(c3ccc(-c4cnc(N)nc4)cc3)CCC2)nc1 [Example 210, 1-[4-(2-aminopyrimidin-5-yl)phenyl]-N-(5-methylpyridin-2-yl)cyclobutanecarboxamide] | 5.1 | 792
14 | COc1ccc(NC(=O)C2(c3ccc(-c4cnc(N)nc4)cc3)CCC2)nc1 [Example 217, 1-[4-(2-aminopyrimidin-5-yl)phenyl]-N-(5-methoxypyridin-2-yl)cyclobutanecarboxamide] | 8.25 | 389
15 | Cn1nccc1-c1ccc(NC(=O)C2(c3ccc(-c4cnc(N)nc4)cc3)CCOCC2)nc1 [Example 218, 4-[4-(2-aminopyrimidin-5-yl)phenyl]-N-[5-(1-methyl-1H-pyrazol-5-yl)pyridin-2-yl]tetrahydro-2H-pyran-4-carboxamide] | 32.5 | 958
16 | Nc1ncc(-c2ccc(C3(C(=O)Nc4cccnn4)CCC3)cc2)cn1 [Example 225, 1-[4-(2-aminopyrimidin-5-yl)phenyl]-N-(pyridazin-3-yl)cyclobutanecarboxamide] | 78 | 1370
17 | CCC(C)(C(=O)Nc1ccc(-c2csc(C)n2)cn1)c1ccc(-c2cnc(N)nc2)cc1 (stereo not drawn) [Example 228, 2-[4-(2-aminopyrimidin-5-yl)phenyl]-2-methyl-N-[5-(2-methyl-1,3-thiazol-4-yl)pyridin-2-yl]butanamide] | 12 | 1100

The remaining compounds from weak to strong by IC50 [1], led by results:

Row | IC50 [1] [nM] | IC50 [2] [nM] | Structure (SMILES)
18 | 290 | > 3000 | Nc1ncc(-c2ccc(C3(C(=O)Nc4ccc(O)nc4)CCC3)cc2)cn1 [Example 221, 1-[4-(2-aminopyrimidin-5-yl)phenyl]-N-(6-hydroxypyridin-3-yl)cyclobutanecarboxamide]
19 | 91.5 | 3040 | Cn1ccc(NC(=O)C2(c3ccc(-c4cnc(N)nc4)cc3)CCC2)cc1=O [Example 216, 1-[4-(2-aminopyrimidin-5-yl)phenyl]-N-(1-methyl-2-oxo-1,2-dihydropyridin-4-yl)cyclobutanecarboxamide]
20 | 50.7 | 2910 | Cc1cnccc1NC(=O)C1(c2ccc(-c3cnc(N)nc3)cc2)CCC1 [Example 196, 1-[4-(2-aminopyrimidin-5-yl)phenyl]-N-(3-methylpyridin-4-yl)cyclobutanecarboxamide]
21 | 43.5 | 1230 | Cn1ccc(NC(=O)C2(c3ccc(-c4cnc(N)nc4)cc3)CCC2)n1 [Example 222, 1-[4-(2-aminopyrimidin-5-yl)phenyl]-N-(1-methyl-1H-pyrazol-3-yl)cyclobutanecarboxamide]
22 | 40.5 | > 3000 | CC(C)C(C)(C(=O)Nc1ccncc1)c1ccc(-c2ccc(N(C)C)nc2)cc1 (stereo not drawn) [Example 227, 2-{4-[6-(dimethylamino)pyridin-3-yl]phenyl}-2,3-dimethyl-N-(pyridin-4-yl)butanamide]
23 | 30 | 718 | Cc1nccn1-c1ccc(NC(=O)C2(c3ccc(-c4cnc(N)nc4)cc3)CCOCC2)cc1 [Example 224, 4-[4-(2-aminopyrimidin-5-yl)phenyl]-N-[4-(2-methyl-1H-imidazol-1-yl)phenyl]tetrahydro-2H-pyran-4-carboxamide]
24 | 27.5 | 1950 | Cc1nc(-c2ccc(NC(=O)C3(c4ccc(-c5ccc(N)nc5)cc4)CCOCC3)nc2)cs1 [Example 191, 4-[4-(6-aminopyridin-3-yl)phenyl]-N-[5-(2-methyl-1,3-thiazol-4-yl)pyridin-2-yl]tetrahydro-2H-pyran-4-carboxamide]
25 | 24 | 1070 | Nc1ncc(-c2ccc(C3(C(=O)Nc4cnccn4)CCC3)cc2)cn1 [Example 214, 1-[4-(2-aminopyrimidin-5-yl)phenyl]-N-(pyrazin-2-yl)cyclobutanecarboxamide]
26 | 17.7 | 706 | Nc1ncc(-c2ccc(C3(C(=O)Nc4ccnnc4)CCC3)cc2)cn1 [Example 215, 1-[4-(2-aminopyrimidin-5-yl)phenyl]-N-(pyridazin-4-yl)cyclobutanecarboxamide]
27 | 13.7 | 3250 | Nc1ncc(-c2ccc(C3(C(=O)Nc4ccccc4)CCC3)cc2)cn1 [Example 203, 1-[4-(2-aminopyrimidin-5-yl)phenyl]-N-phenylcyclobutanecarboxamide]
28 | 12.6 | 333 | COc1ccc(NC(=O)C2(c3ccc(-c4cnc(N)nc4)cc3)CCC2)cn1 [Example 213, 1-[4-(2-aminopyrimidin-5-yl)phenyl]-N-(6-methoxypyridin-3-yl)cyclobutanecarboxamide]
29 | 8.4 | 922 | Cc1csc(NC(=O)C2(c3ccc(-c4cnc(N)nc4)cc3)CCC2)n1 [Example 205, 1-[4-(2-aminopyrimidin-5-yl)phenyl]-N-(4-methyl-1,3-thiazol-2-yl)cyclobutanecarboxamide]
30 | 7.15 | 1670 | Cc1nc(-c2ccc(NC(=O)C3(c4ccc(-c5cnc(N)nc5)cc4)CCCC3)nc2)cs1 [Example 223]
31 | 3.75 | 224 | Nc1ncc(-c2ccc(C3(C(=O)Nc4ccc(-c5ccccc5)cn4)CCC3)cc2)cn1 [Example 201, 1-[4-(2-aminopyrimidin-5-yl)phenyl]-N-(5-phenylpyridin-2-yl)cyclobutanecarboxamide]
32 | 2.7 | 174 | N#Cc1ccc(NC(=O)C2(c3ccc(-c4cnc(N)nc4)cc3)CCC2)cc1Cl [Example 195, 1-[4-(2-aminopyrimidin-5-yl)phenyl]-N-(3-chloro-4-cyanophenyl)cyclobutane-carboxamide]
33 | 2.25 | 149 | COc1cc(NC(=O)C2(c3ccc(-c4cnc5[nH]ccc5c4)cc3)CCC2)ccn1 [Example 190, N-(2-methoxypyridin-4-yl)-1-[4-(1H-pyrrolo[2,3-b]pyridin-5-yl)phenyl]cyclobutanecarboxamide]
